# According to a melting point compilation (Tetko et al.; mined from patent text by program, amines drawn as free bases though some values may be those of a salt):
row,Structure (SMILES),melting point
1,Cc1sc2c(c1C)C(c1ccc(Cl)cc1)=NC(CC(=O)NCc1cccnc1)c1nnc(C)n1-2 (stereo not drawn),180 to 183 °C
2,Cc1ncc(CN)c(N)n1,155 °C
3,Cc1ccc(S(=O)(=O)N(CCN=[N+]=[N-])CCN=[N+]=[N-])cc1,47 to 48 °C
4,CC(=O)C1=C(O)c2ccc3ccccc3c2S(=O)(=O)N1,191 to 192 °C
5,Cc1cc(-c2nc3ccccc3c(=O)n2-c2ccc(I)cc2)cc(C)c1OCCO,101 to 103 °C
6,CCCCCCCCOc1cc(-c2ccccc2)c(OCC(=O)O)c(-c2ccccc2)c1,82 to 84 °C
7,C=CCOC[C@H](NC(=O)[C@@H](NC(=O)[C@H](Cc1ccc(OCC=C)cc1)NC(=O)OC(C)(C)C)C(C)C)C(=O)OC,109 to 111 °C
8,Cc1cc2c(c(C)c1NC(=O)OC(C)(C)C)C(=O)C(C)(C)O2,156 to 157 °C
9,OCc1ccc2c(c1)C(C(Cl)(Cl)Cl)OC(C(Cl)(Cl)Cl)O2 (stereo not drawn),134 to 136 °C
10,CCCc1c(OCCCCCc2c(Cl)c(Cl)cc(OC)c2OC)ccc(C(=O)O)c1O,152 to 154 °C
11,Clc1ccc(-c2nnc(CSCCOc3ccccc3)o2)cn1,113 to 115 °C
12,CCC(=NNc1ccccc1)c1cc(Cl)ccc1NS(=O)(=O)C(F)(F)F,128 to 129 °C
13,CC1(C)CC(=O)Nc2cc3nc(-c4ccc(-n5ccnc5)cc4)[nH]c3cc21,> 300 °C
14,O=S(=O)(Nc1cccc2cc(-c3ccccn3)[nH]c12)c1cccs1,161 to 162 °C
15,CC1(C)C(=O)C(C(=O)c2ccc(Cl)cc2[N+](=O)[O-])C(=O)C(C)(C)C1=O,76 to 82 °C
16,CN(C)c1nc(-c2cccc3ccccc23)co1,30 to 32 °C
17,CCOC(=O)c1sc2ncccc2c1Br,100 to 102 °C
18,CC(C)(C)c1cc(C(=O)Nc2cnc3ccc(Cl)cc3c2-c2ccccc2)cc(C(C)(C)C)c1O,232 to 235 °C

row,Structure (SMILES),melting point
1,CC(=O)c1cc(F)ccc1Oc1nc2ccc(-n3cc(-c4ccccc4)nn3)cc2cc1Cc1ccccc1,183 °C
2,O=C1CC(c2cccc(Cl)c2)c2cc(C(=O)c3ccc(Cl)cc3)ccc2N1 (stereo not drawn),195 °C
3,CN1CCN(CC(=O)N2CC=C(c3cccc(C(F)(F)F)c3)n3ncc(C#N)c32)CC1,178 to 180 °C
4,C=CCNC(=O)C=C(C)N,143 to 144 °C
5,CCSc1ncnc2c(N3CCCCC3)nc(Cl)nc12,110 to 111 °C
6,COc1ccc(C2(O)CC=C(c3ccncc3)N(C)C2=O)cc1 (stereo not drawn),224 to 226 °C
7,CC(=O)Nc1ccc2c(c1)C(=O)C(Br)CCO2 (stereo not drawn),157 to 160 °C
8,CC(OC(=O)OCC(=O)N(C)C)OC(=C1C(=O)N(C(N)=O)c2cc(Cl)c(F)cc21)c1cccs1 (stereo not drawn),194 to 196 °C
9,CCOC(=O)C1=C(C)NC(=O)N(C(=O)OCC)C1c1cccc([N+](=O)[O-])c1 (stereo not drawn),107 to 108 °C
10,Cn1c(COc2ccc(CC3SC(=O)NC3=O)cc2)nc2ccc(Oc3ccc(NS(C)(=O)=O)cc3)cc21 (stereo not drawn),225 to 226 °C
11,FC(F)(F)Sc1cc(-c2ccccc2)c(-c2ccccc2)[nH]1,58 to 59 °C
12,N=C(Nc1cccc([N+](=O)[O-])c1)N1CCCC1,117 to 118 °C
13,CN1C[C@H](CN2CCN(C(c3ccccc3)c3ccccc3)CC2)C[C@@H]2c3cccc4[nH]c(Br)c(c34)C[C@H]21,255 °C
14,CC1(C)CCSc2ccc(Br)cc21,51 °C
15,CCOC(=O)Cn1cc(-c2ccc(F)cc2)c(-c2ccc(S(C)(=O)=O)cc2)n1,116 to 118 °C
16,COc1ccc(Cl)cc1[C@]1(F)C(=O)N(C(=O)N[C@H](C(=O)O)C(C)C)c2cc(C(F)(F)F)ccc21,100 to 104 °C
17,CCOC(=O)CCCCCCC(=O)Nc1ccc2c(c1)C(c1ccccc1)=N[C@@H](C)C(=O)N2C,55 to 56 °C
18,O=[N+]([O-])c1c(NCCC23CCCN2CCC3)cnc2ccccc12,106 to 108 °C

# The next lines start with the values.
row,melting point,Structure (SMILES)
1,176 to 180 °C,Nc1ncc(C#Cc2ccc(Cl)cc2)c(NCCOCCO)n1
2,203 to 205 °C,CCCOc1ccc(-c2ccc3c(c2)C=C(C(=O)Nc2ccc(CN(C)C4CCOCC4)cc2)CCS3(=O)=O)cc1OCC
3,183 to 185 °C,CC(NC(Nc1cc(F)cc(C(F)(F)F)c1)=C(C#N)S(C)(=O)=O)C(C)(C)C (stereo not drawn)
4,126 to 128 °C,Cc1cc(C#N)cc(C(C#N)c2nc(OCc3ccccc3)nc(OCc3ccccc3)c2C(C)(C)C)c1 (stereo not drawn)
5,85 to 87 °C,O=S(=O)(Nc1cccc(CCOCc2sc3ccccc3c2Cl)c1)C(F)(F)F
6,95 to 96 °C,CCCc1sc2nc(CCl)c(C(=O)OCC)c(-c3ccc(Cl)cc3)c2c1C
7,136 to 137 °C,COc1ccc2oc(-c3csc(C)n3)cc2c1
8,82.3 to 90 °C,NC(Cc1ccccc1)C(O)C1=NCCS1 (mixture of isomers)
9,77 to 78 °C,CC(=O)n1ccc2c(C=O)ccc(OCc3ccccc3)c21
10,199 to 202 °C,Cc1cc(C)cc(N2CCN(Cc3ncn(C(c4ccccc4)(c4ccccc4)c4ccccc4)c3C)C2=O)c1
11,141 to 143 °C,CCN(CC)C(=O)/C(=C/C=C/c1cc2ccccc2[nH]1)OC
12,179 to 181 °C,O=C1NCC=NN1c1cc(Cl)cc(Cl)c1
13,146 °C,O=[N+]([O-])c1ccc(Cl)cc1NC12CC3CC(CC(C3)C1)C2
14,122 to 125 °C,CCOC(=O)CN1C(=O)C(=Cc2ccccc2)SC1=S
15,157 °C,Cc1nc(NC(=O)Nc2ccccc2)n(C)c(=O)c1CCN1CCC(Cc2nc3ccccc3n2Cc2ccc(F)cc2)CC1
16,131 to 132 °C,CCNC(=O)c1c([Si](C)(C)C)ccc(C#C[Si](C)(C)C)c1Cl

row,melting point,Structure (SMILES)
1,155 to 156 °C,CCOC(=O)C(O)c1ccccc1Nc1c(Cl)cccc1Cl (stereo not drawn)
2,> 200 °C,C=CCn1c(NC=O)nc(N2CCc3ccccc3CC2)c(C#N)c1=O
3,184 to 186 °C,CS(=O)(=O)c1ccc(-c2nc3cc(C4=CCN(S(=O)(=O)CCCO)CC4)ccc3o2)c(F)c1
4,80 to 82 °C,CCCc1nn(C)c2c(OCCOc3ccc(CC(OCC)C(=O)OCC)cc3)nc(-c3ccccc3)nc12 (stereo not drawn)
5,161 to 163 °C,O=C(NCc1ccc(F)cc1)c1ccnc(N2CCN(Cc3ccncc3)C2=O)c1
6,90.1 to 91.3 °C,CCOP(=O)(Cc1ccc2ccccc2c1O)OCC
7,117 to 118 °C,COc1ccc2c3ccnc(C)c3n(CCCc3ccccc3)c2c1
8,154 to 156 °C,COc1ccc([N+](=O)[O-])cc1CN1CCNCCNCCNCC1
9,92 to 95 °C,C[C@@H](n1nccn1)[C@](O)(Cn1cncn1)c1ccc(F)cc1F
10,187 to 189 °C,CC(=O)OCCc1nc2c(N)nc3ccccc3c2n1CC(C)C
11,130 to 136 °C,Nc1nc2c(s1)CCN(CC=Cc1ccoc1)CC2
12,210 to 212 °C,O=C(O)c1cccc(C2Oc3ccccc3C(O)=C2Cc2ccccc2)c1 (stereo not drawn)
13,136 to 138 °C,COc1ccc(-n2nc(Cl)cc2-c2ccc(OCCO)cc2)cn1
14,79 to 81 °C,CCC(=S)N1CCSC1=Nc1ccccc1C(C)C
15,168 to 172 °C,CC(=O)NC1CCCc2sc(C(C)=O)cc21 (stereo not drawn)
16,> 230 °C,CSc1nn2c(-n3ccnc3)cc(C)nc2c1S(=O)(=O)c1ccccc1
